Data: patent US7671054B1, “Reverse-turn mimetics and method relating thereto” (Choongwae Pharma Corporation, priority 2001, dated 2010)
Entries after “also recorded” stand apart in the source; their conditions may differ.

Key:
[1] = biological target: β-catenin/CBP interaction (Homo sapiens, UniProt Q92793); conditions: Emami et al., Cancer Cell, in press; cited from earlier work
caspase 2 = test: Caspase 2 activity in cultured tumor cells; type: cell-based; conditions: co-treatment of stausporine (0.5 μM) and Compound D
[2] = test system: Ephrin B2 (EphB2) receptor in PC-12 PS-1/L286V cells; test: EphB2 receptor expression (immunofluorescence and RT-PCR); type: cell-based, Rat; conditions: PS-1/L286V mutant PC-12 cells; 10 μM
Description: Immunofluorescence. Cells were plated at a density of 10,000 cells/cm^2 on sterile coated 22×22 mm coverslips in a 6-well culture plate. Differentiation was initiated, as previously described, for 10 days. The differentiated cells were then fixed in methanol for 15 minutes at −20° C. This is followed by a 15 minutes incubation with PBS+0.1% Triton X-100. The coverslips were incubated with antibodies raised against Ephrin B2 Receptor (Santa Cruz Biotechnology) and Gap-43 (Novus Biologicals) for 40 minutes at 37° C. After a series of washes with PBS-Triton X-100, secondary antibody conjugated to FITC (Jackson ImmunoResearch, Westgrove, Pa.) was applied. All slides images were acquired using a Nikon PCM2000 Laser Scanning Confocal Microscope mounted on a Nikon Eclipse E600 upright microscope (Nikon, Melville, N.Y.).
RT-PCR. To analyze the mRNA levels for Ephrin B2 (EphB2) receptor, total RNA was isolated using Trizol (Invitrogen-GIBCO-BRL, Baltimore, Md.) from differentiated cells. 2 μg RNA was reverse transcribed in a total volume of 20 μl with random hexamer (50 ng), and using the Superscript II reverse transcription system (Invitrogen-GIBCO-BRL), according to manufacturer's guidelines. PCR was carried out in a 50 μl volume containing 5 μl cDNA, 100 pmol primers, 100 μM dNTPs, 1×Taq buffer and 1.5 mM MgCl2. […]

[3] = test system: caspase-3/7 in HCT116 cells; test: Caspase-3/7 activity assay; type: cell-based; conditions: 25 μM, 24 hours, compared to CCD18Co cells
Description: (§1) SW480, HCT116, and CCD18Co cells were plated at 10^5 cells per well (96-well plates) for 24 hours prior to treatment. […] 24 hours post treatment, cells were lysed and caspase activity was measured using a caspase-3/7 activity kit (Apo-One Homogeneous caspase-3/7 assay, #G77905, Promega). Relative fluorescence units (RFU) were obtained by subtracting the unit values of the blank (control, without cells) from the experimental measured values.

[4] = test system: caspase-3/7 in SW480 cells; test: Caspase-3/7 activity assay; type: cell-based; conditions: 25 μM, 24 hours, compared to CCD18Co cells
Description: as §1

Sequence of β-catenin/CBP interaction (Q92793 whole entry): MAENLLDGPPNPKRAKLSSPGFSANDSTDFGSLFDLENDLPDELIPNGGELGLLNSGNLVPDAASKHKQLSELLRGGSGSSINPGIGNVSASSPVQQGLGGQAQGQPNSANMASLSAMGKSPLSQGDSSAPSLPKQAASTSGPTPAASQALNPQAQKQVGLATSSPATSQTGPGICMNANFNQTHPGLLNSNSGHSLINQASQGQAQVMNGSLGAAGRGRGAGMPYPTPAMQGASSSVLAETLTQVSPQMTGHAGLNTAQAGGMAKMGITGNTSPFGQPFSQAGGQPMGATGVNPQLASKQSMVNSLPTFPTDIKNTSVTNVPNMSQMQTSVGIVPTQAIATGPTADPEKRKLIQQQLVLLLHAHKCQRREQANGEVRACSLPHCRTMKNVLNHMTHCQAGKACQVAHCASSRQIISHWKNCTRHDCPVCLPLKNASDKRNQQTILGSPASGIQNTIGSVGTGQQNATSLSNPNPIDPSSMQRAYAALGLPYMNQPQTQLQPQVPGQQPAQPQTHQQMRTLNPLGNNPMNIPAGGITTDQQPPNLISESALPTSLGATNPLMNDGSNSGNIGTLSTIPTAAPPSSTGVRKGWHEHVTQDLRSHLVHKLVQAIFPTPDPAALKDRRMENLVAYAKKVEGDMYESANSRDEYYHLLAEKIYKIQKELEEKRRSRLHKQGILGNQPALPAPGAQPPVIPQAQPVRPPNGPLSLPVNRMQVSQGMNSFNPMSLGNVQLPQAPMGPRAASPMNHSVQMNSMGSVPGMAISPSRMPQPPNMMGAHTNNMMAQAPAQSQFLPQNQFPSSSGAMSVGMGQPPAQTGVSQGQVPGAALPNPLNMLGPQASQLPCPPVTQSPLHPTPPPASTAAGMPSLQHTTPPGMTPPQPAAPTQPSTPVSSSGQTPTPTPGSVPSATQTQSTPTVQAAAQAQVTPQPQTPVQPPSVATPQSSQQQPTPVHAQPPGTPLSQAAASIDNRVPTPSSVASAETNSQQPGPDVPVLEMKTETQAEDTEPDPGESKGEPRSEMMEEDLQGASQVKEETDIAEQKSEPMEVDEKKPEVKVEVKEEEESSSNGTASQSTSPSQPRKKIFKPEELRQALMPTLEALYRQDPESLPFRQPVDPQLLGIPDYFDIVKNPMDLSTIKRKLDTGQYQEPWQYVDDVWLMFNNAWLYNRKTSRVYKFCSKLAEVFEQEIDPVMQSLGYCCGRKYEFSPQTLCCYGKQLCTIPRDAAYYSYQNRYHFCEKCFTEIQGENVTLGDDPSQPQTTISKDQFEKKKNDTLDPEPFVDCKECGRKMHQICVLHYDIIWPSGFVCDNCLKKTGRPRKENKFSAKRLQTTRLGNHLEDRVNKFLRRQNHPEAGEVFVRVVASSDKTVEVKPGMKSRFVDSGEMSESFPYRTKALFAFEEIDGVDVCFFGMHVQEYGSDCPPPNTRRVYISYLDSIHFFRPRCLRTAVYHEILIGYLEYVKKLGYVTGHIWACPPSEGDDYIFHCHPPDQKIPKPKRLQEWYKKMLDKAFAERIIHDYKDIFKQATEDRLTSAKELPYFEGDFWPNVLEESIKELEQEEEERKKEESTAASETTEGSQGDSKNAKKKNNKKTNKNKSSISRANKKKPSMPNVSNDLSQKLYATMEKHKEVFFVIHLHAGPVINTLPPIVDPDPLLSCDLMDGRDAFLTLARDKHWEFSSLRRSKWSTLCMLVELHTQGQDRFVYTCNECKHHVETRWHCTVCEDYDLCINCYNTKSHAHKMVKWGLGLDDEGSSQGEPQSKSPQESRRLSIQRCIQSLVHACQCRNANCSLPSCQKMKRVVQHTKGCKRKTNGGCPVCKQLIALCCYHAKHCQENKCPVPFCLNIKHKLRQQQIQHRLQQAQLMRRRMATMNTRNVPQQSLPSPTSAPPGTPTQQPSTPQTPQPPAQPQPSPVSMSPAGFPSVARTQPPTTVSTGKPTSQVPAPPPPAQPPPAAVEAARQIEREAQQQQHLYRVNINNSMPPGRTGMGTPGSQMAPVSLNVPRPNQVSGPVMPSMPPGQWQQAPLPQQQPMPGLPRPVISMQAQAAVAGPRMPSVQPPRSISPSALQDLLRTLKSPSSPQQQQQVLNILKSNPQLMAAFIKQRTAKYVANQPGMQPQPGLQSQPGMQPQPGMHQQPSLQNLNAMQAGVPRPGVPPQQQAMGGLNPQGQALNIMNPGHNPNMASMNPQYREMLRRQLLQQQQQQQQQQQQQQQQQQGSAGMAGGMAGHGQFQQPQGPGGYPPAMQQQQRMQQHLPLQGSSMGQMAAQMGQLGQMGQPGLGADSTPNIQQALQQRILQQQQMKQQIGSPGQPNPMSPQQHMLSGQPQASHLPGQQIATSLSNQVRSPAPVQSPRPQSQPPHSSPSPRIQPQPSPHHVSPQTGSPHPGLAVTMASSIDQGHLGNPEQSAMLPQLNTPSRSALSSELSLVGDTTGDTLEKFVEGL

Compound: O=C1[C@H](Cc2ccc(O)cc2)N2C(=O)CCN(C(=O)NCc3ccccc3)[C@H]2CN1Cc1cccc2ccccc12 [Compound D]
- β-catenin/CBP interaction [1]: selectively blocks the β-catenin/CBP interaction
- caspase 2 activity, co-treatment (caspase 2): not a synergic stimuation of the caspase 2 activity
- EphB2 message (RT-PCR) [2]: increased EphB2 message; also recorded: upregulates EphB2 message
- EphB2 receptor expression (immunofluorescence) [2]: increased EphB2 receptor expression
- caspase-3/7 activity [3]: selectively activates caspases in colon carcinoma cell lines
- caspase-3/7 activity [4]: selectively activates caspases in colon carcinoma cell lines
